Target: HPK1 (Homo sapiens (Human), UniProt Q92918)
Experiment: HPK1 Kinase Binding Assay
Details: active HPK1 (SignalChem M23-11G), tracer 222, LanthaScreen Eu-Anti GST antibody, one hour at 25° C.
Method: A stock solution of 1 mM test compound was prepared in DMSO. The compound plate was prepared by 3-fold and 11-point serial dilutions. 0.1 μL of the compound in DMSO was transferred from the compound plate to the white 384 well polystyrene plates. The assay buffer contained 50 mM HEPES, pH 7.5, 0.01% Tween-20, 5 mM MgCl2, 0.01% BSA, and 5 mM DTT. 5 μL of 4 nM active HPK1 (SignalChem M23-11G) prepared in the buffer was added to the plate. The enzyme concentration given was based on the given stock concentration reported by the vender. […] After one hour incubation at 25° C., the plates were read on a PHERAstar FS plate reader (BMG Labtech). Ki values were determined.

HPK1, sequence (Q92918 1-346 limits assumed): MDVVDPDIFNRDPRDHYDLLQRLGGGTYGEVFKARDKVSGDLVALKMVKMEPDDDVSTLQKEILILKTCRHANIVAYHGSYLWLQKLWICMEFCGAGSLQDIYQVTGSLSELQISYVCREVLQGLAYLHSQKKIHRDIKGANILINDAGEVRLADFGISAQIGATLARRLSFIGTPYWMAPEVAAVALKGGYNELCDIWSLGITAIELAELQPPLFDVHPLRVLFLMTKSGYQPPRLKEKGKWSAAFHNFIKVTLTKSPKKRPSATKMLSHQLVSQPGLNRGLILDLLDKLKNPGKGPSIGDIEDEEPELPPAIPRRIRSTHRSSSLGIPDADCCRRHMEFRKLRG

Row | SMILES | Ki [nM]
1 | COCCn1ncc2c(N3C[C@@H]4C[C@H]3CN4)c(NC(=O)c3ccnc(-c4c(F)cccc4OC)n3)cc(F)c21 [Example 26, N-(4-((1S,4S)-2,5-diazabicyclo[2.2.1]heptan-2-yl)-7-fluoro-1-(2-methoxyethyl)-1H-indazol-5-yl)-2-(2-fluoro-6-methoxyphenyl)pyrimidine-4-carboxamide] | < 100
2 | COCCn1ncc2c(N3C[C@@H](N)C[C@H]3CO)c(NC(=O)c3ccnc(-c4c(F)cccc4OC)n3)cc(F)c21 [Example 31, N-(4-((2S,4S)-4-Amino-2-(hydroxymethyl)pyrrolidin-1-yl)-7-fluoro-1-(2-methoxyethyl)-1H-indazol-5-yl)-2-(2-fluoro-6-methoxyphenyl)pyrimidine-4-carboxamide] | < 100
3 | COc1cccc(F)c1-c1nccc(C(=O)Nc2ccc3c(c(-c4ccccc4)nn3C)c2N2CCC(N(C)C)CC2)n1 [Example 29, N-(4-(4-(Dimethylamino)piperidin-1-yl)-1-methyl-3-phenyl-1H-indazol-5-yl)-2-(2-fluoro-6-methoxyphenyl)pyrimidine-4-carboxamide] | 100 to 500
4 | COc1cccc(F)c1-c1nccc(C(=O)Nc2cc(F)c3nn(C)cc3c2N2CCC3(CCNC3=O)C2)n1 (single isomer, unassigned; peak 1) [8, Peak 1] | < 100
5 | COc1cccc(F)c1-c1nccc(C(=O)Nc2cc(F)c3c(cnn3-c3ccncc3C#N)c2N2C[C@@H](N)C[C@H]2CO)n1 [Example 34, N-(4-((2S,4S)-4-Amino-2-(hydroxymethyl)pyrrolidin-1-yl)-1-(3-cyanopyridin-4-yl)-7-fluoro-1H-indazol-5-yl)-2-(2-fluoro-6-methoxyphenyl)pyrimidine-4-carboxamide] | < 100

Continued, values first:

Row | Ki [nM] | SMILES
6 | < 100 | COc1cccc(F)c1-c1nccc(C(=O)Nc2cc(F)c3c(cnn3C)c2-c2cnn(C)c2)n1 [Example 21, N-(7-Fluoro-1-methyl-4-(1-methyl-1H-pyrazol-4-yl)-1H-indazol-5-yl)-2-(2-fluoro-6-methoxyphenyl)pyrimidine-4-carboxamide]
7 | < 100 | COc1cccc(F)c1-c1nccc(C(=O)Nc2cc(F)c3c(cnn3C)c2C2CCNC2)n1 (stereo not drawn) [Example 11, N-(7-Fluoro-1-methyl-4-(pyrrolidin-3-yl)-1H-indazol-5-yl)-2-(2-fluoro-6-methoxyphenyl)pyrimidine-4-carboxamide]
8 | < 100 | COc1cccc(F)c1-c1nccc(C(=O)Nc2cc(F)c3c(cnn3C)c2-n2cccn2)n1 [Example 13, N-(7-Fluoro-1-methyl-4-(1H-pyrazol-1-yl)-1H-indazol-5-yl)-2-(2-fluoro-6-methoxyphenyl)pyrimidine-4-carboxamide]
9 | < 100 | COc1cccc(F)c1-c1nccc(C(=O)Nc2cc(F)c3c(cnn3C)c2-c2cccnc2)n1 [Example 20, N-(7-Fluoro-1-methyl-4-(pyridin-3-yl)-1H-indazol-5-yl)-2-(2-fluoro-6-methoxyphenyl)pyrimidine-4-carboxamide]

From US10752635B2, “Indazole compounds and uses thereof” (Incyte Corporation, priority 2018, dated 2020)
